The values below come from US20060234916A1, “Cardioprotective agent” (Mizuo Miyazaki, priority 2003, published 2006).

In one data set the target is T1, chymase (Homo sapiens, UniProt P23946).
T1 construct: the chymase activity in the blood vessel tissue of the living body; from tissue; host or cells: blood vessel tissue of the living body
T1 sequence (P23946 22-247): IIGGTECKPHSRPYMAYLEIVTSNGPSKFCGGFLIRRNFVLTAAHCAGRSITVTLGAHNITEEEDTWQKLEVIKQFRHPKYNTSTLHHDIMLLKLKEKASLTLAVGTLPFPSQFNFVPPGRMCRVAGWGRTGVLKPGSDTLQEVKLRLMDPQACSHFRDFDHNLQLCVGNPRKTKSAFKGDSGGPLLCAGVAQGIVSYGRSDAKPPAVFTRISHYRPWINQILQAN
Description: Suppression of chymase activity in blood vessel tissue of the living body after use during operation. The settings on record: used at 10 μM during the operation; effect for 4 weeks. In kind it is in vivo. How it is done: The agent of the present invention allows at least one protease inhibitor to be administered in a substantially sufficient amount so that the inhibitor may exist by an effective concentration in the site of heart to protect. […] The effective administration amount of chymase inhibitor (Suc-Val-Pro-L-Phe^P(Oph)2) can be selected in the range from 0.0001 to 100 mg per 1 kg of adult body weight, per one day. For example, it is administered intravenously by an amount selected in the range from 0.001 to 100 mg, preferably from 0.01 to 1 mg, and orally by an amount selected in the range from 0.1 to 100 mg, preferably from 0.1 to 10 mg.

For data set [1], the system named is Syrian hamsters myocardial infarction model. Briefly: Survival rate after myocardial infarction (left coronary artery ligation) with oral administration. The class given is in vivo. The settings on record: placebo 39.1%. How it is done: The left coronary artery was ligated in Syrian hamsters (SLC, Co., Ltd., Shizuoka, Japan), 6 weeks of age, weighing 85 to 90 g, to prepare a myocardial infarction model (Jpn. J. Pharmacol., 86, p. 203-214 2001 life Sci. 71 p. 437-446 2002). […] It should be noted that the significant test was performed by log rank test using the survival curve.

Data set [2] in a line: Stability (half-life) in human blood plasma. In kind it is in vitro ADME. How it is done: The agent of the present invention may contain the peptide derivative of an aryl diester of alpha-aminoalkylphosphonic acids. […] These derivatives are contained in human blood plasma, and remarkably stable under a variety of circumstances. For example, the preferred inhibitor Suc-Val-Pro-Phe^P(OPh)2, particularly preferably, Suc-Val-Pro-L-Phe^P(OPh)2 contained in the agent of the present invention, has a half-life of about 20 hours in human blood plasma. This stability is important, because it is predicted that a peritoneal exudate neutralizes most of protease inhibitors to damage their activity. Aminoalkylphosphonic acids are analogous of alpha-amino acids, and designated by the generally acceptable three-letter abbreviation for an amino acid followed by the superscript P. For example, diphenyl alpha-(N-benzyloxycarbonylamino)ethylphosphonate which is related to alanine is abbreviated Cbz-Ala^P(OPh)2.

For `CC(C)C(NC(=O)CCC(=O)O)C(=O)N1CCCC1C(=O)NC(Cc1ccccc1)P(=O)(Oc1ccccc1)Oc1ccccc1` [Suc-Val-Pro-L-Phe^P(OPh)2], the “chymase activity in the blood vessel tissue of the living body” value on chymase is reported as “suppress significantly”. In addition, the “survival rate up to the 14th day” value in data set [1] (10 mg/kg orally once a day, administered from the day before the operation, log rank test significant, FIG. 1) was 88.9%; in data set [1] (10 mg/kg orally, administered from the day after the operation, significant, FIG. 2), 88.9%. Further, the “half-life in human blood plasma” value in data set [2] is “about 20 hours”.
Take Suc-Val-Pro-Phe^P(OPh)2: in data set [2], the “half-life in human blood plasma” value is listed as “about 20 hours”.
